Source: patent US20240358693A1, “METHODS OF TREATING PAIN” (Aisa Pharma, Inc., priority 2023, published 2024)

Test system: participants with SSc-RP
Experiment: Scleroderma Health Assessment Questionnaire (SHAQ): disability indices and visual analog scales
Assay type: in vivo, human
Conditions: Day 12
How it was run: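 Participants with SSc-RP completed the SHAQ at screening and each in-clinic visit. Standard and alternative disability indices (eight categories, 0–3; standard adjusts for aids/assistance) plus Raynaud's VAS on interference over the past 7 days. Reported as absolute change from baseline to end of each dosing period.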

[1] = Pooled Cilnidipine 20 mg and Cilnidipine 20 mg + Tadalafil 5 mg (N = 8), PP Population Part A
[2] = Pooled Cilnidipine (N = 8), PP Population Part A
[3] = mITT Part A, SSc patients, cilnidipine 10 mg and/or tadalafil 5 mg as in the arm

COCCOC(=O)C1=C(C)NC(C)=C(C(=O)OC/C=C/c2ccccc2)C1c1cccc([N+](=O)[O-])c1 (stereo not shown) [Cilnidipine, cilnidipine]
SHAQ Visual Analogue Scale - Pain, Change from Baseline, Median [1]: −0.500 | SHAQ Visual Analogue Scale - Pain, Percent Change from Baseline, Mean [1]: −25.85% | SHAQ Visual Analogue Scale - Pain, Percent Change from Baseline, Median [1]: −48.78% | SHAQ Visual Analogue Scale - Raynaud's, Change from Baseline, Mean [1]: −1.013 | SHAQ Visual Analogue Scale - Raynaud's, Change from Baseline, Median [1]: −0.650 | SHAQ Visual Analogue Scale - Raynaud's, Percent Change from Baseline, Mean [1]: −32.40% | SHAQ Visual Analogue Scale - Raynaud's, Percent Change from Baseline, Median [1]: −37.35% | SHAQ Visual Analogue Scale - Breathing Problems, Change from Baseline, Mean [2]: −0.388 | SHAQ Visual Analogue Scale - Breathing Problems, Change from Baseline, Median [2]: 0.000 | SHAQ Visual Analogue Scale - Breathing Problems, Percent Change from Baseline, Mean [2]: −0.22% | SHAQ Visual Analogue Scale - Breathing Problems, Percent Change from Baseline, Median [2]: −16.00% | SHAQ Visual Analogue Scale - Finger Ulcers, Change from Baseline, Mean [2]: −0.643 | SHAQ Visual Analogue Scale - Finger Ulcers, Change from Baseline, Median [2]: 0.000 | SHAQ Visual Analogue Scale - Finger Ulcers, Percent Change from Baseline, Mean [2]: −17.08% | SHAQ Visual Analogue Scale - Finger Ulcers, Percent Change from Baseline, Median [2]: −50.82% | SHAQ Visual Analogue Scale - Intestinal Problems, Change from Baseline, Mean [2]: −0.863 | SHAQ Visual Analogue Scale - Intestinal Problems, Change from Baseline, Median [2]: −0.050 | SHAQ Visual Analogue Scale - Intestinal Problems, Percent Change from Baseline, Mean [2]: −43.69% | SHAQ Visual Analogue Scale - Intestinal Problems, Percent Change from Baseline, Median [2]: −66.06% | SHAQ Visual Analogue Scale - Overall Disease Severity, Change from Baseline, Mean [2]: −1.450 | SHAQ Visual Analogue Scale - Overall Disease Severity, Change from Baseline, Median [2]: −1.550 | SHAQ Visual Analogue Scale - Overall Disease Severity, Percent Change from Baseline, Mean [2]: −61.10% | SHAQ Visual Analogue Scale - Overall Disease Severity, Percent Change from Baseline, Median [2]: −60.00% | SHAQ Visual Analogue Scale - Pain, Change from Baseline, Mean [2]: −0.375 | SHAQ Visual Analogue Scale - Pain, Change from Baseline, Median [2]: −0.250 | SHAQ Visual Analogue Scale - Pain, Percent Change from Baseline, Mean [2]: −23.98% | SHAQ Visual Analogue Scale - Pain, Percent Change from Baseline, Median [2]: −41.18% | SHAQ Visual Analogue Scale - Raynaud's, Change from Baseline, Mean [2]: −0.438 | SHAQ Visual Analogue Scale - Raynaud's, Change from Baseline, Median [2]: −0.600 | SHAQ Visual Analogue Scale - Raynaud's, Percent Change from Baseline, Mean [2]: −18.62% | SHAQ Visual Analogue Scale - Raynaud's, Percent Change from Baseline, Median [2]: −33.33% | SHAQ Alternative Disability Index, Change from Baseline, Mean [3]: 0.083 | SHAQ Alternative Disability Index, Change from Baseline, Median [3]: 0.000 | SHAQ Alternative Disability Index, In-Clinic Visit (Day 12), Mean [3]: 0.750 | SHAQ Alternative Disability Index, In-Clinic Visit (Day 12), Median [3]: 1.000 | SHAQ Alternative Disability Index, Percent Change from Baseline, Mean [3]: 15.87% | SHAQ Alternative Disability Index, Percent Change from Baseline, Median [3]: 15.87% | SHAQ Visual Analogue Scale - Finger Ulcers, Change from Baseline, Mean [3]: −0.567 | SHAQ Visual Analogue Scale - Finger Ulcers, Change from Baseline, Median [3]: −0.700 | SHAQ Visual Analogue Scale - Finger Ulcers, In-Clinic Visit (Day 12), Mean [3]: 0.367 | SHAQ Visual Analogue Scale - Finger Ulcers, In-Clinic Visit (Day 12), Median [3]: 0.000 | SHAQ Visual Analogue Scale - Finger Ulcers, Percent Change from Baseline, Mean [3]: −69.44% | SHAQ Visual Analogue Scale - Finger Ulcers, Percent Change from Baseline, Median [3]: −69.44% | SHAQ Visual Analogue Scale - Intestinal Problems, Change from Baseline, Mean [3]: −2.467 | SHAQ Visual Analogue Scale - Intestinal Problems, Change from Baseline, Median [3]: −3.000 | SHAQ Visual Analogue Scale - Intestinal Problems, In-Clinic Visit (Day 12), Mean [3]: 1.467 | SHAQ Visual Analogue Scale - Intestinal Problems, In-Clinic Visit (Day 12), Median [3]: 0.600 | SHAQ Visual Analogue Scale - Intestinal Problems, Percent Change from Baseline, Mean [3]: −66.06% | SHAQ Visual Analogue Scale - Intestinal Problems, Percent Change from Baseline, Median [3]: −66.06% | SHAQ Visual Analogue Scale - Overall Disease Severity, Change from Baseline, Mean [3]: −1.067 | SHAQ Visual Analogue Scale - Overall Disease Severity, Change from Baseline, Median [3]: −1.500 | SHAQ Visual Analogue Scale - Overall Disease Severity, In-Clinic Visit (Day 12), Mean [3]: 2.433 | SHAQ Visual Analogue Scale - Overall Disease Severity, In-Clinic Visit (Day 12), Median [3]: 1.900 | SHAQ Visual Analogue Scale - Overall Disease Severity, Percent Change from Baseline, Mean [3]: −35.44% | SHAQ Visual Analogue Scale - Overall Disease Severity, Percent Change from Baseline, Median [3]: −35.44% | SHAQ Visual Analogue Scale - Pain, Change from Baseline, Mean [3]: 0.100 | SHAQ Visual Analogue Scale - Pain, Change from Baseline, Median [3]: 0.000 | SHAQ Visual Analogue Scale - Pain, In-Clinic Visit (Day 12), Mean [3]: 2.167 | SHAQ Visual Analogue Scale - Pain, In-Clinic Visit (Day 12), Median [3]: 2.900 | SHAQ Visual Analogue Scale - Pain, Percent Change from Baseline, Mean [3]: 5.77% | SHAQ Visual Analogue Scale - Pain, Percent Change from Baseline, Median [3]: 5.77%
